Reference: US20190185518A9, “WARHEAD-CONTAINING PEPTIDOMIMETIC MACROCYCLES AS MODULATORS OF BFL-1” (AILERON Therapeutics, Inc., priority 2017, published 2019)
Positions of bridges follow the written chain, without caps; N, C: chain ends. Non-standard residues stand in square brackets, D forms with d. Residues, ends and D or L forms follow the SMILES beside them. R8 = C=CCCCCCC[C@@](C)(N)C(=O)O; Cit = NC(=O)NCCC[C@H](N)C(=O)O; S5 = C=CCCC[C@](C)(N)C(=O)O

Legend:
Bcl-2 = Bcl-2 (Homo sapiens, UniProt P10415); assay: Ki determination for Bcl-2 (BCL-2 family binding spectrum); conditions: TABLE 6; read-out: Bcl-2 Ki
Summary of the method: (§1)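 Competitive fluorescence polarization: compounds (1 nM–1 mM) with 25 nM fluoresceinated peptidomimetic macrocycle and 50 nM protein in 140 mM NaCl, 50 mM Tris-HCl pH 7.4, 30 min at room temperature. Constants from nonlinear regression.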

Mcl-1, Bcl-xL, Bcl-2 = assay: BCL-2 family selectivity profile; assay type: binding; conditions: TABLE 6
Excerpt: The binding spectrum of stapled BIM BH3 peptides were tuned for BCL-2 family selectivity. […] ABT-199 is venetoclax, and † represents values reported in the literature.

Mcl-1 = Mcl-1 (Homo sapiens, UniProt Q07820); assay: Ki determination for Mcl-1 (BCL-2 family binding spectrum); conditions: TABLE 6; read-out: Mcl-1 Ki
Summary of the method: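 Binding to Mcl-1 was measured as displacement of a fluorescein-labelled macrocyclic peptidomimetic, read by fluorescence polarization. Constants were fitted by nonlinear regression.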

Bcl-xL = Bcl-xL (Homo sapiens, UniProt Q07817); assay: Ki determination for Bcl-xL (BCL-2 family binding spectrum); conditions: TABLE 6; read-out: Bcl-xL Ki
Summary of the method: as §1

Bcl-2, sequence (P10415 whole entry, species assumed): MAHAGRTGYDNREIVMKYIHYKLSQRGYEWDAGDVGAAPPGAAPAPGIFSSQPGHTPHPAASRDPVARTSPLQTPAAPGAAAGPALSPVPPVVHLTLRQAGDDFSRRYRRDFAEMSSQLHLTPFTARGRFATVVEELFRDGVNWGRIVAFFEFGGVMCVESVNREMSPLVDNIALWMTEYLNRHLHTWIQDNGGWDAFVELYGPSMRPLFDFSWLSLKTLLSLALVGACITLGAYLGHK
Bcl-xL, sequence (Q07817 whole entry, species assumed): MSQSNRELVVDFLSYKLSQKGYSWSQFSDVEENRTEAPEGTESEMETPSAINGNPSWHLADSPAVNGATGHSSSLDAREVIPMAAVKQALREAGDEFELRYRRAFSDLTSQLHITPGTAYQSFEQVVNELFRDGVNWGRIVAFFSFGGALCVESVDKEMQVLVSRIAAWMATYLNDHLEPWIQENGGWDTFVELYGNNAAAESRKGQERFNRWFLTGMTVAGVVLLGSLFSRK
Mcl-1, sequence (Q07820 whole entry, species assumed): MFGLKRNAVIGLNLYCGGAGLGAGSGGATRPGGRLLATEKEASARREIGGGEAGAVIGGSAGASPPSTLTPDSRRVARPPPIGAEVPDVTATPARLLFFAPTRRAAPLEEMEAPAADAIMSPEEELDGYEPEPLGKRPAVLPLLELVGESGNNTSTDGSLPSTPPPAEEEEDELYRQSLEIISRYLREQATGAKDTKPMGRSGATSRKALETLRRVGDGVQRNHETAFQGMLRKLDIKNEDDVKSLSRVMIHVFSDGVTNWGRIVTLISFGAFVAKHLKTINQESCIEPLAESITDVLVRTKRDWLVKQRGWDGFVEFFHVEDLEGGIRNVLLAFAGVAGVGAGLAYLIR

SMILES	Ki (Bcl-2) [nM]	Profile (Mcl-1, Bcl-xL, Bcl-2)	Ki (Mcl-1) [nM]	Ki (Bcl-xL) [nM]
CC[C@H](C)[C@H](NC(C)=O)C(=O)N[C@@H](Cc1c[nH]c2ccccc12)C(=O)N[C@H](C(=O)N[C@@H](C)C(=O)N[C@@H](CCC(N)=O)C(=O)N[C@@H](C)C(=O)N[C@@H](CC(C)C)C(=O)N[C@@H](CCCNC(N)=O)C(=O)N[C@]1(C)CCCCCCC=CCCC[C@@](C)(C(=O)N[C@@H](Cc2ccc(O)cc2)C(=O)N[C@@H](Cc2ccc(O)cc2)C(=O)N[C@@H](C)C(N)=O)NC(=O)[C@H](CC(N)=O)NC(=O)[C@H](Cc2ccccc2)NC(=O)[C@H](C)NC(=O)[C@H](CC(=O)O)NC(=O)CNC(=O)[C@H]([C@@H](C)CC)NC1=O)[C@@H](C)CC [compound 5] (Ac-IWIAQAL[Cit][R8]IGDAFN[S5]YYA-NH2; staple 9-16)	212	Mcl-1 selective	7.5	110
CC[C@H](C)[C@H](NC(C)=O)C(=O)N[C@@H](Cc1c[nH]c2ccccc12)C(=O)N[C@H](C(=O)N[C@@H](C)C(=O)N[C@@H](CCC(N)=O)C(=O)N[C@@H](C)C(=O)N[C@@H](CC(C)C)C(=O)N[C@@H](CCCNC(=N)N)C(=O)N[C@]1(C)CCCCCCC=CCCC[C@@](C)(C(=O)N[C@@H](Cc2ccc(O)cc2)C(=O)N[C@@H](Cc2ccc(O)cc2)C(=O)N[C@@H](C)C(N)=O)NC(=O)[C@H](CC(N)=O)NC(=O)[C@H](Cc2ccccc2)NC(=O)[C@H](CCC(N)=O)NC(=O)[C@H](CC(=O)O)NC(=O)CNC(=O)[C@H](C)NC1=O)[C@@H](C)CC [compound 10] (Ac-IWIAQALR[R8]AGDQFN[S5]YYA-NH2; staple 9-16)	4.8	Bcl-xL/Bcl-2 selective	122	1.9
